Laboratory results: patent EP1724268A1, “COMPOUND HAVING TGF-BETA INHIBITORY ACTIVITY AND PHARMACEUTICAL COMPOSITION CONTAINING SAME” (KIRIN BEER KABUSHIKI KAISHA, priority 2004, dated 2005)
Like-named read-outs stand apart in the source and are kept apart here.

Assays:
[1] = tested on: rat unilateral ureteral obstruction (UUO) model; assay: Anti-fibrotic activity, rat unilateral ureteral obstruction (UUO) model (Test Example 5); assay type: in vivo, SD rats; settings: UUO treatment, left kidney, corrected by total protein of kidney extract, average of 6 rats ± standard deviation
Method: The anti-fibrotic activity of the compounds described in the present specification was evaluated using a rat unilateral ureteral obstruction (UUO) model which is a renal fibrosis model. Compound 50 and compound 159 were used as the test compound. Six week-old male SD rats (available from Charles River Japan, Inc.) were purchased and were pre-raised before use in experiments. Regarding diets and drinking water, pellets CE-2 (available from CLEA JAPAN INC.) and sterile tap water were freely fed. The rats underwent laparotomy under pentobarbital anesthesia, and the left renal urinary duct was ligated. Thereafter, the […] underwent suturing operation and were divided into a vehicle administration group (n = 6) and a test compound administration group (n = 6) using the weight as an index. The test compound was mixed in amounts of 0.03% and 0.1% in powder diet CE-2 (available from CLEA JAPAN INC.), and the mixtures were fed as a diet to each rat group from the first day of the ureteral obstruction.
After administration of the mixed feed for 7 days, the left kidney was removed, and the hydroxyproline content as an index of organ fibrosis was measured by the following method. Specifically, renal pieces were first placed in 6 N HCl, were homogenized, and were then heated on a heat block at 130°C for 3 hr to hydrolyze protein. Thereafter, the suspension of renal pieces was neutralized by the addition of an appropriate amount of 4 N NaOH. The neutralized suspension was centrifuged (1000 rpm, 5 min, room temperature) to obtain the supernatant as a kidney extract. A chloramine T liquid, a perchloric acid solution (a solution prepared by adding distilled water to 31.5 ml of 60% perchloric acid to adjust the total volume to 100 ml), and a p-dimethylaminobenzaldehyde solution (a solution prepared by adding […] to 20 g of p-dimethylaminobenzaldehyde to adjust the total volume to 100 ml) were added to the kidney extract, and a reaction was allowed to proceed at 60°C for 20 min. The absorbance at 557 nm was then measured. The content of hydroxyproline was determined from the measured data based on a calibration curve for hydroxyproline prepared using control. Further, the content of hydroxyproline thus determined was corrected according to the total protein content of the kidney extract.
The values in the tables are average of data on 6 rats for each group ± standard deviation.

TGFβ signal = TGFβ signal inhibitory activity, (SBE)4-Luc reporter in A549 cells (Test Examples 1A and 1B); assay type: cell-based, human; settings: Homo sapiens, A549, read-out: TGFβ inhibition rate, %
How it was run: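 Compounds at 3 µM and 10 µM (some 1 µM) were added with 2 ng/ml TGFβ-1 to A549 cells stably expressing an SBE-driven luciferase, then cultured 4 hr. Chemiluminescent luciferase signal gave % inhibition versus TGFβ-alone and no-TGFβ controls.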

BMP4 signal = assay: BMP signal inhibitory activity, p(GCCG)12-Luc reporter in HepG2 cells (Test Example 7); assay type: cell-based, human; settings: as compared with Example 274 described in WO 03/00660
Text: The inhibitory activity of the compounds according to the present invention against BMP signals was studied using a cell line through which TGFb and BMP signals can be simultaneously observed. Specifically, the cell lines capable of detecting the two signal was generated by transfecting reporter plasmids for detection of TGFb and BMP signals into a human hepatocarcinoma cell line HepG2(available from ATCC) and was used as evaluation cells. For detection of TGF-beta signal, the plasmid having four tandem binding sequences of Smad2/3, TGF-beta signal transducers, to the upstream of a luciferases gene were used as a reporter plasmid (p(SBE)4-Luc/hygro). For detection of BMP signal, the plasmid having twelve tandem binding sequences of Smadl/5/8, BMP signal transducers, to the upstream of a luciferases gene were used as a reporter plasmid (p(GCCG)12-Luc/neo), according to the method described in Mol Biol Cell. 2000 11(2): 555-65. The test compound and TGFβ-1 (2 ng/ml) or BMP4 (20 ng/ml) were added to the cells, and the mixture was cultured for 4 hr. The compounds according to the present invention synthesized in the working example were used as the test compound. […] After the culture, the luciferase activity of the cells was measured by chemiluminescence (Steady Glo (trademark) luciferase assay system, available from Promega). Likewise, the luciferase activity was measured as control for the culture of cells with only TGFβ or BMP4 added thereto and the culture of cells with the addition of none of TGFβ, BMP4 and the test compound. The inhibitory activity IC50 of the compounds against TGFβ and BMP4 was calculated based on the results of measurement, and the kinase selectivity for BMP4 was determined by the following method. Kinase selectivity for BMP4 (times) = Inhibitory activity against BMP4 signal (IC50)/Inhibitory activity against TGFβ signal (IC50)

A549 cells = assay: Cell growth inhibitory activity using A549 cells (Test Example 6); assay type: cell-based, Human; settings: for inhibition at 30 µM: Homo sapiens, A549, compound 30 µM, 5% serum, 40 hr, counting kit-8, read-out: Cell growth inhibition rate (%); for inhibitory activity against cell growth of A549 cells: as compared with Example 274 described in WO 03/00660
Method: Human lung cancer epithelial cells (A549) (available from ATCC) were suspended to a concentration of 3 × 10^4/ml in a DMEM/F12 medium containing 10%FCS, and the suspension was inoculated in 100 µl portions in wells of a 96-well plate. On the following day, a stock solution of the test compound which had been adjusted to 10 mM with DMSO was adjusted with a serum-free DMEM/F12 medium to a dose (60 µM) which was twice the evaluation concentration. After removing the medium inoculated in the 96 wells on the previous day, the solution was added in 50 µl portions to the plate. Next, a DMEM/F12 medium containing 10% serum was added in 50 µl portions to the wells, followed by culturing at 37°C for 40 hr. The final concentration of the serum and the concentration of the evaluation compound were 5% and 30 µM, respectively. The compounds according to the present invention synthesized in the working example were used as the test compound. […]
After 40 hr, the culture was removed, and 100 µl of a solution prepared by diluting counting kit-8 (purchased from Dojindo) with a serum-free F12 medium by 10 times was added, followed by culturing at 37°C for 20 to 30 min. After the confirmation of suitable color development, the absorbance at 450 nm was measured with ARVO (purchased from Wallach Bethold Japan). The cell growth inhibition in the test compound added wells were determined by presuming the absorbance value in the test compound-free wells to be 0% and the absorbance value in the cell-free wells to be 100%.

[2] = tested on: mouse unilateral ureteral obstruction (UUO) model; assay: Anti-fibrotic activity, mouse UUO model, mixed feed for 10 days (Test Example 3); assay type: in vivo; settings: UUO treatment, kidney, average of five mice ± standard deviation
Method: The anti-fibrotic activity of the compounds related to the present invention was evaluated using a mouse unilateral ureteral obstruction (UUO) model which is a renal fibrosis model. Compound r384 produced in the working example was used as the test compound. Seven week-old male BALB/c mice (available from Charles River Japan, Inc.) were purchased and were pre-raised before use in experiments. Regarding diets and drinking water, pellets CE-2 (available from CLEA JAPAN INC.) and sterile tap water were freely fed. The mice underwent laparotomy under pentobarbital anesthesia, and the left renal urinary duct was ligated. […] After administration for 4 days, the mouse left kidney was removed, and the hydroxyproline content as an index of organ fibrosis was measured by the following method. […] The absorbance at 557 nm was then measured. The content of hydroxyproline was determined from the measured data based on a calibration curve for hydroxyproline prepared using control. Further, the content of hydroxyproline thus determined was corrected according to the weight of the homogenized kidney. The anti-fibrotic activity of a compound related to the present invention was evaluated using the same model as used in Test Example 2. […]

[3] = test compound 3 µM, TGFβ-1 2 ng/ml, 4 hr, Table 1A
[4] = test compound 10 µM, TGFβ-1 2 ng/ml, 4 hr, Table 1A

## CCc1ccc(Oc2ccnc3cc(OC)c(OC)cc23)c(-c2ncccn2)n1 [Compound 50, 4-(6-Ethyl-2-pyrimidin-2-yl-pyridin-3-yloxy)-6,7-dimethoxy-quinoline]
[1]; 0.03% mixed feed for 7 days, Table 5a
  Hydroxyproline content: 7.33 ± 0.67 mg/g
[1]; 0.1% mixed feed for 7 days, Table 5a
  Hydroxyproline content: 4.67 ± 0.22 mg/g
TGFβ signal; [3]
  inhibition at 3 µM: 98%
TGFβ signal; [4]
  inhibition at 10 µM: 100%

## CCc1ccc(Oc2ccnc3cc(OC)c(F)cc23)c(-c2ncccn2)n1 [Compound 159, 4-(6-Ethyl-2-pyrimidin-2-yl-pyridin-3-yloxy)-6-fluoro-7-methoxy-quinoline]
[1]; 0.03% mixed feed for 7 days, Table 5b
  Hydroxyproline content: 22.47 ± 0.82 mg/g
[1]; 0.1% mixed feed for 7 days, Table 5b
  Hydroxyproline content: 17.28 ± 0.87 mg/g
TGFβ signal; [3]
  inhibition at 3 µM: 99%
TGFβ signal; [4]
  inhibition at 10 µM: 100%

## Cc1ccc(Oc2ccnc3cc(C(N)=O)ccc23)c(-c2ncccn2)n1 [Compound 217, 4-(6-Methyl-2-pyrimidin-2-yl-pyridin-3-yloxy)-quinoline-7-carboxylic acid amide]
TGFβ signal; [3]
  inhibition at 3 µM: 90%
TGFβ signal; [4]
  inhibition at 10 µM: 100%
BMP4 signal
  inhibitory activity against BMP4 signals: reduced inhibitory activity
A549 cells
  inhibition at 30 µM: 4%
  inhibitory activity against cell growth of A549 cells: reduced inhibitory activity

## Cc1ccc(Oc2ccnc3ccc(OCCCO)cc23)c(-c2ncccn2)n1 [Compound 222, 3-[4-(6-Methyl-2-pyrimidin-2-yl-pyridin-3-yloxy)-quinolin-6-yloxy]-propan-1-ol]
TGFβ signal; [3]
  inhibition at 3 µM: 91%
TGFβ signal; [4]
  inhibition at 10 µM: 100%
BMP4 signal
  inhibitory activity against BMP4 signals: reduced inhibitory activity
A549 cells
  inhibition at 30 µM: 6%
  inhibitory activity against cell growth of A549 cells: reduced inhibitory activity

## CCc1ccc(Oc2ccnc3cc(F)c(OCCO)cc23)c(-c2ncccn2)n1 [Compound 225, 2-[4-(6-Ethyl-2-pyrimidin-2-yl-pyridin-3-yloxy)-7-fluoro-quinolin-6-yloxy]-ethanol]
TGFβ signal; [3]
  inhibition at 3 µM: 89%
TGFβ signal; [4]
  inhibition at 10 µM: 99%
BMP4 signal
  inhibitory activity against BMP4 signals: reduced inhibitory activity
A549 cells
  inhibition at 30 µM: 8%
  inhibitory activity against cell growth of A549 cells: reduced inhibitory activity

## COc1cc2c(Oc3cc(C)c(C)cc3C(C)=O)ccnc2cc1OCCCN1CCOCC1.Cl [Compound r320, 1-{2-[6-Methoxy-7-(3-morpholin-4-yl-propoxy)-quinolin-4-yloxy]-4,5-dimethyl-phenyl}-ethanone hydrochloride]
TGFβ signal; 3 µM, compounds of Reference Examples (Test Example 1B)
  inhibition at 3 µM: 100%
TGFβ signal; 10 µM, compounds of Reference Examples (Test Example 1B)
  inhibition at 10 µM: 100%
[2]; 0.1% mixed feed for 10 days
  Hydroxyproline content (mg/g protein): 9.44 ± 0.53 mg/g protein
[2]; 0.3% mixed feed for 10 days
  Hydroxyproline content (mg/g protein): 9.19 ± 0.38 mg/g protein
